Reference: patent US20250214977A1, “STAT6 INHIBITORS AND USES THEREOF” (Kymera Therapeutics, Inc., priority 2024, published 2025)

System: Phosphorylation of STAT6 in human A549 cells
Experiment: Phosphorylated STAT6 (pSTAT6) flow cytometry assay in human A549 cells
Format: cell-based
Conditions: read-out: STAT6 IL4 pSTAT6 assay in A549 cells: Average IC50
Text: Example 3. Phosphorylated STAT6 (pSTAT6) Flow Cytometry Assay in Human A549 Cells
Phosphorylation of STAT6 in human A549 cells was quantitatively measured using flow cytometry technology.

Row | SMILES | IC50 [nM]
1 | CCn1c(N2CCN(C(=O)c3cc4c(-c5ccccc5OC)cc(C5=CCCN(C(=O)CCn6ccnn6)C5)c(F)c4[nH]3)CC2)cc2ccccc21 [Example I-967] | 100 to 1000
2 | COc1cccnc1N1CCN(C(=O)c2cc3c(-c4cccc5c4OC(F)(F)O5)cc(C4=CCCN(C(=O)CCn5ccnn5)C4)c(F)c3[nH]2)CC1 [Example I-690] | < 100
3 | COc1ccccc1N1CCN(C(=O)c2cc3c(-c4cnccc4OC(C)(C)C)cc(C4=CCCN(C(=O)CCn5ccnn5)C4)c(F)c3[nH]2)CC1 [Example I-404] | > 100000
4 | COc1cccc(N2CCN(C(=O)c3cc4c(-c5cccnc5OC)cc(C5=CCCN(C(=O)CCn6ccnn6)C5)c(F)c4[nH]3)CC2)n1 [Example I-606] | < 100
5 | COc1ccccc1-c1cc(C2=CCCN(C(=O)CCn3ccnn3)C2)c(F)c2[nH]c(C(=O)N(C)Cc3ccc4c(c3)OCO4)cc12 [Example I-976] | < 100
6 | COc1ccccc1-c1cc(C2=CCCN(C(C)=O)C2)c(F)c2[nH]c(C(=O)N(C)C)cc12 [Example I-1069] | < 100
7 | COc1ccccc1-c1cc(C2=CCCN(C(=O)CCn3ccnn3)C2)c(F)c2[nH]c(C(=O)N3CCN(c4ccc5n[nH]cc5c4)CC3)cc12 [Example I-859] | < 100
8 | COc1ccccc1-c1cc(C2=CCCN(C(=O)CCn3ccnn3)C2)c(F)c2[nH]c(C(=O)N3CCN(c4nc(C)cs4)CC3)cc12 [Example I-1024] | < 100
9 | COc1ccccc1-c1cc(C2=CCCN(C(=O)CCn3ccnn3)C2)cc2[nH]c(C(=O)N(C)C)cc12 [Example I-1054] | < 100
10 | CCOc1ccncc1-c1cc(C2=CCCN(C(=O)CCn3ccnn3)C2)c(F)c2[nH]c(C(=O)N3CCN(c4nccnc4OC)CC3)cc12 [Example I-478] | < 100
11 | COc1cc(F)cnc1N1CCN(C(=O)c2cc3c(-c4cc(C)cc5cccnc45)cc(C4=CCCN(C(=O)CCn5ccnn5)C4)c(F)c3[nH]2)CC1 [Example I-633] | < 100
12 | COc1ccc(NC(=O)c2cc3c(-c4ccccc4OC)cc(C4=CCCN(C(=O)CCn5ccnn5)C4)c(F)c3[nH]2)cn1 [Example I-979] | 100 to 1000
13 | CCc1nc(C)ccc1-c1cc(C(=O)N2CCN(c3ncc(F)cc3OC)CC2)cc2cc(C3=CCCN(C(=O)CCc4nccs4)C3)n(CC3CC3)c12 [Example I-523] | < 100
14 | COc1ccccc1-c1cc(C2=CCCN(C(=O)CCn3ccnn3)C2)c(F)c2[nH]c(C(=O)N3CCN(c4cccn(C)c4=O)CC3)cc12 [Example I-1021] | < 100
15 | CCc1cnccc1-c1cc(C2=CCCN(C(=O)CCn3ccnn3)C2)c(F)c2[nH]c(C(=O)N3CCN(c4ncc(OC)cc4OC)CC3)cc12 [Example I-484] | > 100000
16 | CN(C)C(=O)c1cc2cc(C3=CCCN(C(=O)CCn4ccnn4)C3)cc(NCc3ccc(C#N)cc3)c2o1 [Example I-895] | < 100
17 | COc1ccccc1-c1cc(C2=CCCN(C(=O)CCn3cccn3)C2)c(F)c2[nH]c(C(=O)N3Cc4cnn(C)c4C3)cc12 [Example I-503] | 10000 to 100000
18 | COc1cc(F)ccc1-c1cc(C2=CCCN(C(=O)CCn3ccnn3)C2)c(F)c2[nH]c(C(=O)N3CCN(c4ncc(F)cc4OC)CC3)cc12 [Example I-613] | < 100
19 | COc1cc(F)cnc1N1CCN(C(=O)c2cc3c(-c4cccc5c4OCCCO5)cc(C4=CCCN(C(=O)CCn5ccnn5)C4)c(F)c3[nH]2)CC1 [Example I-678] | < 100
20 | COc1cnccc1-c1cc(C2=CCCN(C(=O)CCn3ccnn3)C2)c(F)c2[nH]c(C(=O)N3CCN(c4ncc(C(F)(F)F)cc4OC)CC3)cc12 [Example I-435] | < 100
21 | CCc1cc(C)ncc1-c1cc(C2=CCCN(C(=O)CCn3ccnn3)C2)c(F)c2[nH]c(C(=O)N3CCN(c4nc(C)c(F)cc4OC)CC3)cc12 [Example I-737] | < 100
22 | CCc1cnccc1-c1cc(C2=CCCN(C(=O)CCn3ccnn3)C2)c(F)c2[nH]c(C(=O)N3CCN(c4ncccc4OC)CC3)cc12 [Example I-608] | > 100000
23 | COc1ccccc1-c1cc(C2=CCCN(C(=O)CCn3ccnn3)C2)c(F)c2[nH]c(C(=O)N3CCNC(=O)CC3)cc12 [Example I-983] | < 100
24 | CC#Cc1cc(-c2cc(C3=CCCN(C(=O)CCn4ccnn4)C3)c(F)c3[nH]c(C(=O)N4CCN(c5ncc(F)cc5OC)CC4)cc23)ccn1 [Example I-634] | < 100
25 | CNc1ccc(-c2cc(C3=CCCN(C(C)=O)C3)c(F)c3[nH]c(C(=O)N(C)C)cc23)c(OC)c1 [Example I-1092] | < 100
26 | COc1cc(F)cnc1N1CCN(C(=O)c2cc3c(-c4ccncc4C(C)C)cc(C4=CCCN(C(=O)CCn5cccn5)C4)c(F)c3[nH]2)CC1 [Example I-685] | < 100

Next, values leading:

Row | IC50 [nM] | SMILES
27 | > 100000 | COc1ccncc1-c1cc(C2=CCCN(C(=O)CCn3ccnn3)C2)c(F)c2[nH]c(C(=O)N3CCN(c4cccnc4C#N)CC3)cc12 [Example I-493]
28 | < 100 | COc1cc(F)cnc1N1CCN(C(=O)c2cc3c(C4CCN(C)CC4)cc(C4=CCCN(C(=O)CCn5ccnn5)C4)c(F)c3[nH]2)CC1 [Example I-725]
29 | 100 to 1000 | COc1ccccc1-c1cc(C2=CCCN(C(=O)CCn3ccnn3)C2)c(F)c2[nH]c(C(=O)N3CCN(c4cc(C)cc(Br)c4OC)CC3)cc12 [Example I-964]
30 | > 100000 | CCc1nc(C)ccc1-c1cc(C(=O)N2CCN(c3ncc(F)cc3OC)CC2)cc2cc(C3=CCCN(C(=O)CC(=O)O)C3)n(CC(C)C)c12 [Example I-800]
31 | 100 to 1000 | CN(C)C(=O)c1cc2cc([C@H]3CCCN(C(=O)CCn4ccnn4)C3)ccc2o1 [Example I-830]
32 | < 100 | COc1ccccc1-c1cc(C2=CCCN(C(=O)CCn3ccnn3)C2)c(F)c2[nH]c(C(=O)N3CCN(c4ccc5c(c4)C=NCC5)CC3)cc12 [Example I-918]
33 | < 100 | CCc1ccccc1-c1cc(C2=CCCN(C(=O)CCn3ccnn3)C2)c(F)c2[nH]c(C(=O)N3CCN(c4ncc(F)cc4OC)CC3)cc12 [Example I-665]
34 | > 100000 | CCc1ccc(-c2cc(C3=CCCN(C(=O)CCn4ccnn4)C3)c(F)c3[nH]c(C(=O)N4Cc5cnn(CC)c5C4)cc23)c(C)n1 [Example I-761]
35 | < 100 | COc1ccccc1-c1cc(C2=CCCN(C(=O)CCn3ccnn3)C2)c(F)c2[nH]c(C(=O)N3CCc4ccc(N)cc4C3)cc12 [Example I-1012]
36 | < 100 | COc1ccccc1-c1cc(C2=CCCN(C(=O)CCn3ccnn3)C2)c(F)c2[nH]c(C(=O)N3CCN(c4ncc(F)c(F)c4OC)CC3)cc12 [Example I-510]
37 | 1000 to 10000 | CCC1CCCCC1c1cc(C2=CCCN(C(=O)CCn3ccnn3)C2)c(F)c2[nH]c(C(=O)N3CCN(c4ncc(F)cc4OC)CC3)cc12 (single isomer, unassigned) [Example I-1174]
38 | < 100 | COc1cccc(N2CCN(C(=O)c3cc4c(-c5ccncc5OC)cc(C5=CCCN(C(=O)CCn6ccnn6)C5)c(F)c4[nH]3)CC2)n1 [Example I-612]
39 | < 100 | CCCN1CCN(C(=O)c2cc3c(-c4ccccc4OC)cc(C4=CCCN(C(=O)CCn5ccnn5)C4)c(F)c3[nH]2)C[C@@H]1C [Example I-997]
40 | 1000 to 10000 | COc1cc(F)cnc1N1CCN(C(=O)c2cc(-c3cccnc3C3CC3)c3[nH]c(C4CCCN(C(=O)CCn5ccnn5)C4)cc3c2)CC1 (stereo not drawn) [Example I-1204]
41 | < 100 | COc1cccnc1N1CCN(C(=O)c2cc3c(-c4cccc(C)c4OC)cc(C4=CCCN(C(=O)CCn5ccnn5)C4)c(F)c3[nH]2)CC1 [Example I-560]
42 | > 100000 | COc1ccccc1N1CCN(C(=O)c2cc3c(-c4cnccc4OCF)cc(C4=CCCN(C(=O)CCn5ccnn5)C4)c(F)c3[nH]2)CC1 [Example I-405]
